Experimental data: patent US20040072770A1, “Methods for specifically inhibiting histone deacetylase-7 and 8” (priority 2002, published 2004)
pIC50: −log10 of the molar value. Entries after “also recorded” stand apart in the source; their conditions may differ. Each block holds one compound with its values, some of them ahead of it. d = 2'-deoxy (DNA); m = 2'-O-methyl

Experiments:
[1] = test system: human HDAC-7 protein; experiment: HDAC-7 protein expression in A549 cells, SDS-PAGE and antibody probing; format: cell-based; settings: 25 or 50 nM, 48 hours (time course 24 or 48 hours)
Method: In order to determine whether treatment with HDAC ODNs would inhibit HDAC protein expression, human A549 cancer cells were treated with 25 or 50 nM of paired antisense or its mismatch oligos directed against human HDAC-7 for 48 hours. ODN treatment conditions were as previously described.
Cells were lysed in buffer containing 1% Triton X-100, 0.5% sodium deoxycholate, 5 mM EDTA, 25 mM Tris-HCl, pH 7.5, plus protease inhibitors. Total protein was quantified by the protein assay reagent from Bio-Rad (Hercules, Calif.). 100 ug of total protein was analyzed by SDS-PAGE. Next, total protein was transferred onto a PVDF membrane and probed with HDAC-7-specific primary antibodies.

[2] = test system: human HDAC-7 mRNA; experiment: HDAC-7 mRNA expression in A549 cells, Northern blot; format: cell-based; settings: for HDAC-7 RNA expression, initial screen: 100 nM; for HDAC-7 RNA expression, initial screen / HDAC-7 mRNA expression, dose response (FIG. 1): 24 hours; for HDAC-7 mRNA expression, dose response (FIG. 1): 25 or 50 nM
Method: (§1) To identify antisense oligodeoxynucleotide (ODN) capable of inhibiting HDAC-7 expression in human cancer cells, eighteen phosphorothioate ODNs containing sequences complementary to the 5′ or 3′ UTR of the human […] (GenBank Accession No. AF239243) were initially screened in A549 cells at 100 nM. Cells were harvested after 24 hours of treatment, and HDAC-7 RNA expression was analyzed by Northern blot analysis. […] Total RNAs were harvested and were analyzed by Northern Blot. GAPDH expression was analyzed to indicate total RNA loading in each lane.
(§2) In order to determine the dose response of HDAC7 antisense inhibitors to reduce HDAC7 message at the mRNA level, Human A549 cells were treated with 25 or 50 nM of antisense (AS1 and AS2) oligos directed against human HDAC-7 or the corresponding mismatch of AS1 (MM1) oligo or an universal mismatch (UMM) for 24 hours. […] The time dependence of HDAC7 antisense inhibitors on blocking HDAC7 gene expression at the mRNA level was analyzed by treating A549 cells with 50 nM AS1 or MM1 oligos. […] Similarly, A549 cells were treated with 25 nM or 50 nM of AS1 or AS2 oligos directed against human HDAC-8 or its MM oligo for AS2 (MM2) for 24 hours. AS-2 oligo against human HDAC8 at 50 nM was also used to treat A549 cells for 24 or 48 hours.
(§3) For all ex vivo oligo treatment, human A549 human […] carcinoma cells were seeded in 10 cm tissue culture dishes one day prior to oligonucleotide treatment. The cell lines were obtained from the American Type Culture Collection (ATCC) (Manassas, Va.) and were grown under the recommended culture conditions. Before the addition of the oligonucleotides, cells were washed with PBS (phosphate buffered saline). Next, lipofectin transfection reagent (GIBCO BRL Mississauga, Ontario, Calif.), at a concentration of 6.25 μg/ ml, was added to serum free OPTIMEM medium (GIBCO BRL, Rockville, Md.), which was then added to the cells. The oligonucleotides were added directly to the cells (i.e., one oligonucleotide per plate of cells). Mismatched oligonucleotides were used as controls. The same concentration of oligonucleotide (e.g., 50 nM) was used per plate of cells for each oligonucleotide tested.
(§4) Cells were harvested, and total RNAs were analyzed by Northern blot analysis. Briefly, total RNA was extracted using RNeasy miniprep columns (QIAGEN Canada, Mississauga, Ontario). Ten to twenty […] of total RNA was run on a formaldehyde-containing 1% agarose gel with 0.5 M sodium phosphate (pH 7.0) as the buffer system. RNAs were then transferred to nitrocellulose membranes and hybridized with the indicated radiolabeled DNA probes. Autoradiography was performed using conventional procedures.

[3] = test system: A549 cells; experiment: Growth inhibition by antisense oligos, A549; format: cell-based, human; settings: 50 nM, 48 hour, vs cells treated with lipofectin
Method: as §3
(§5) In order to determine the effect of HDAC ODNs on cell growth inhibition and cell death through apoptosis, A549, T24, DuI45, HCT116 cells (ATCC, Manassas, Va.), or HMEC cells (BioWhittaker, Walkersville, Md.) were treated with HDAC ODNs as previously described.
(§6) For the cell growth inhibition analysis, human cancer or normal cells were treated with 50 nM of paired AS or MM oligos directed against human HDAC-1, HDAC-7 or HDAC-8for up to 96 hours. Cell numbers were counted every day by trypan blue exclusion. Percentage of inhibition was calculated as (100 - AS cell numbers/control cell numbers)%.

[4] = test system: p21 protein; experiment: p21 protein expression in A549 cells; format: cell-based, human
[5] = test system: Du145 cells; experiment: Growth inhibition by antisense oligos, Du145; format: cell-based, human; settings: 50 nM, 48 hour, vs cells treated with lipofectin
Method: as §3, §5, §6

[6] = test system: human HDAC-8 mRNA; experiment: HDAC-8 mRNA expression in A549 cells, Northern blot; format: cell-based; settings: 24 hours
Method: as §1, with “antisense oligodeoxynucleotides” for “antisense oligodeoxynucleotide”, “inhibiting HDAC-8” for “inhibiting HDAC-7”, “cells, fourteen” for “cells, eighteen”, “No. AF230097)” for “No. AF239243)”, “and HDAC-8” for “and HDAC-7”
as §2, §3, §4

[7] = biological target: T1, HDAC-8 (Homo sapiens, UniProt Q9BY41); experiment: Enzyme inhibitory activity, HD8; format: biochemical; settings: read-out: IC50 HD 8
T1 sequence (Q9BY41 1-377): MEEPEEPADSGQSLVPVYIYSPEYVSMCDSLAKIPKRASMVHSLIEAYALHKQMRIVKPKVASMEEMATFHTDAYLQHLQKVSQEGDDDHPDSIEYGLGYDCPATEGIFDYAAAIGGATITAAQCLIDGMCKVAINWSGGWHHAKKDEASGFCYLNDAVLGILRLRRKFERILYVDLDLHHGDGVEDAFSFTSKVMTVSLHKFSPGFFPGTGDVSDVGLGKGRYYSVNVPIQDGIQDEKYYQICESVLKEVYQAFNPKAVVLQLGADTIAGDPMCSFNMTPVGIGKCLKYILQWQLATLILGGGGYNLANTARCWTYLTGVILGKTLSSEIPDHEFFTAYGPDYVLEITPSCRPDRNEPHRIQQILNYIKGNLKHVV

[8] = test system: colon cancer cells HCT116; experiment: MTT assay, HCT116; format: cell-based, human; settings: 72 hours; read-out: IC50 HCT 116 (MTT)
Method: Effects of HDAC isotype-specific small molecule inhibitors on growth inhibition of various human cancer cells (from ATCC) in vitro were determined by MTT assays. Briefly, cells seeded in 96-well plates were incubated for 72 hours at 37° C. in a 5% CO2 incubator. MTT (Sigma) was added at a final concentration of 0.5 mg/ml and incubated with the cells for 4 hours before an equal volume of solubilization buffer (50% N,N-dimethylformamide, 20% SDS, pH 4.7) was added onto cultured cells. After overnight incubation, solubilized dye was quantified by colorimetric reading at […] using a reference at 630 nM. OD values were converted to cell numbers according to a standard growth curve of the relevant cell line. The concentration which reduces cell numbers to 50% of those of DMSO-treated cells is determined as MTT IC50. In Table 4, IC50s of several HDAC7 or HDAC8 inhibitors in MTT assays in various human cancer cell lines were listed. They include colon cancer cells HCT116 and SW48, lung cancer cells A549 and H446, breast cancer cells MCF-7 and MDAmb231, a prostate cancer cell line Du145 and a bladder cancer cell line T24.

[9] = biological target: HDAC-4 (Homo sapiens, UniProt P56524); experiment: Enzyme inhibitory activity, HD4; format: biochemical
[10] = biological target: HDAC-1 (Homo sapiens, UniProt Q13547); experiment: Enzyme inhibitory activity, HD1; format: biochemical; settings: read-out: IC50 HD 1
Chain of HDAC-1 (Q13547 whole entry): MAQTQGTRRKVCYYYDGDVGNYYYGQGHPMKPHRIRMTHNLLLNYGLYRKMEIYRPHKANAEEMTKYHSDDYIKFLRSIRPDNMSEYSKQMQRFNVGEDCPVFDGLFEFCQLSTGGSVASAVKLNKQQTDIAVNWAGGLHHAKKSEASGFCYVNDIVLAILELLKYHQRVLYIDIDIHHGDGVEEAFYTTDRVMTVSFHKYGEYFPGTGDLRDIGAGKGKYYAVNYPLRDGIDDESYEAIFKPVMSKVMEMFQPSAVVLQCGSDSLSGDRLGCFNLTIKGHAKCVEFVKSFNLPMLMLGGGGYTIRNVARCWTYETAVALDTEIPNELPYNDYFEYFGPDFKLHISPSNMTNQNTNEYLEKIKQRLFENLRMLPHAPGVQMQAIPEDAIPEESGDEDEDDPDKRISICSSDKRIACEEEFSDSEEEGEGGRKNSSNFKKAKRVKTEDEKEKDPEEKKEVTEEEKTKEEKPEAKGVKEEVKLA

Chain of HDAC-4 (P56524 whole entry): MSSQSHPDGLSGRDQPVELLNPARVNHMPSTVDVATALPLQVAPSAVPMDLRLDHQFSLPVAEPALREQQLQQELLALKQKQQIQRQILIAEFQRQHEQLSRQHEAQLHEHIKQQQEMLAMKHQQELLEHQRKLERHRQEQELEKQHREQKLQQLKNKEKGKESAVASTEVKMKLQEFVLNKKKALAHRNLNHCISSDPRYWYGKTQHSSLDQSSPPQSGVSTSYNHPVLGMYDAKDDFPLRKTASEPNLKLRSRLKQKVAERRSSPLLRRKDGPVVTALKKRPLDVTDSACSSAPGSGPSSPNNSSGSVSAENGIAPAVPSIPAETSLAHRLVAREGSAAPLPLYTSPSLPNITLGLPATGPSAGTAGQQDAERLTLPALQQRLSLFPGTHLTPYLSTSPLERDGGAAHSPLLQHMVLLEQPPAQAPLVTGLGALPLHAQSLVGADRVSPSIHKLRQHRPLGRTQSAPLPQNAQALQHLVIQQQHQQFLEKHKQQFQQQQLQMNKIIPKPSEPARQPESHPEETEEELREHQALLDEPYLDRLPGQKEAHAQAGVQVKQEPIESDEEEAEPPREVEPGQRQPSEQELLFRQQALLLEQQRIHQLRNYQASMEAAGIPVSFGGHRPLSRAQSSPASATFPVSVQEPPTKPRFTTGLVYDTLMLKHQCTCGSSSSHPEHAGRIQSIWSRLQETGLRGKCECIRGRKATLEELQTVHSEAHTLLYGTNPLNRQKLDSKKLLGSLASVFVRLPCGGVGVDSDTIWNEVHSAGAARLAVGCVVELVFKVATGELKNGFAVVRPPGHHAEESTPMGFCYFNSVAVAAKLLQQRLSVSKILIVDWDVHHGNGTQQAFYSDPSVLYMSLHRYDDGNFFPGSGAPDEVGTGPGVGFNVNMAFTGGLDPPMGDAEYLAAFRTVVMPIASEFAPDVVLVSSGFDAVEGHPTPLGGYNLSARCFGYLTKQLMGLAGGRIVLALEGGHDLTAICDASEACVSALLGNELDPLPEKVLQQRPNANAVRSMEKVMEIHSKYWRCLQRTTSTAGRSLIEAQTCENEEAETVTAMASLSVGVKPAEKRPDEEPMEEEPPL

Compound: 5′-CAGGCTCACTTGACAAUGGC-3′ (sugars from the 5' end m4 d12 m4, all phosphorothioate, methylation of C not given here) [HD7 AS1, antisense oligo, Human HDAC7 5′-UTR]
HDAC-7 protein expression (FIG. 2, FIG. 4) [1]: inhibited
HDAC-7 mRNA expression, time course (FIG. 3) ([2]; 50 nM): significantly block gene expression of human HDAC7 at the mRNA level by 24 hours
HDAC-7 RNA expression, initial screen [2]: good antisense activities
HDAC-7 mRNA expression, dose response (FIG. 1) ([2]; listed as HDAC7 AS1): can inhibit human HDAC7 expression at the mRNA level; also recorded: inhibited in a dose-dependent manner
Growth Inhibition A549 [3]: + (“+” means >35% inhibition of cell growth by antisense oligos (50 nM, 48 hour) compared to that of cells treated with lipofectin)
p21 protein expression (FIG. 2) [4]: induced
Growth Inhibition Du145 [5]: + (“+” means >35% inhibition of cell growth by antisense oligos (50 nM, 48 hour) compared to that of cells treated with lipofectin)

Compound: 5′-CGCUTTCCTTGTCATTGACA-3′ (sugars from the 5' end m4 d12 m4, all phosphorothioate, methylation of C not given here) [HD3 AS1, antisense oligo, Human HDAC3 3′-UTR]
Growth Inhibition Du145 [5]: + (“+” means >35% inhibition of cell growth by antisense oligos (50 nM, 48 hour) compared to that of cells treated with lipofectin)

Compound: 5′-CUCCGGCTCCTCCATCUUCC-3′ (sugars from the 5' end m4 d12 m4, all phosphorothioate, methylation of C not given here) [HDAC8 AS1, antisense oligo, Human HDAC8 5′-UTR]
HDAC-8 mRNA expression, dose response (FIG. 5) ([6]; 25 nM or 50 nM): inhibited in a dose-dependent manner
HDAC-8 RNA expression, initial screen ([6]; 100 nM): good antisense activities

Compound: 5′-CUUCAGCCAGGATGCCCACA-3′ (sugars from the 5' end m4 d12 m4, all phosphorothioate, methylation of C not given here) [HDAC7 AS2, antisense oligo, Human HDAC7 3′-UTR]
HDAC-7 protein expression (FIG. 2, FIG. 4) [1]: inhibited
HDAC-7 RNA expression, initial screen [2]: good antisense activities
HDAC-7 mRNA expression, dose response (FIG. 1) [2]: can inhibit human HDAC7 expression at the mRNA level; also recorded: inhibited in a dose-dependent manner
p21 protein expression (FIG. 2) [4]: induced

Compound: 5′-GCAGCGGCGGCAGCACCUCC-3′ (sugars from the 5' end m4 d12 m4, all phosphorothioate, methylation of C not given here) [HD5 AS1, antisense oligo, Human HDAC5 5′-UTR]
Growth Inhibition Du145 [5]: + (“+” means >35% inhibition of cell growth by antisense oligos (50 nM, 48 hour) compared to that of cells treated with lipofectin)

pIC50 [7]: 6.40
pIC50 [8]: 5.22
pIC50 [9]: < 5.00
pIC50 [10]: 5.70
Compound: CC(C=CC(=O)NO)=CC(C)Cc1ccc(N(C)C)cc1 (stereo not shown) [Compound 4, N-Hydroxy-4,6-dimethyl-7-[(4-N,N-dimethylaminophenyl)]-2,4-heptadienamide]
